Measured values as given in the supplement of paper PMC10307832.

Legend:
Experiment in all cases: relative viability (nuclei count vs DMSO), 5 days (fraction); higher = more cells survive
NCI-H1299 = system: NCI-H1299
Outline: (§1)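 Nuclei were stained with Hoechst during a one-step fixation (final 0.05% Triton X-100, 1% formaldehyde, 1 ug/ml Hoechst) carried out 5 days after dosing, then counted on 4× images. The cells, lung cancer lines in 1536-well plates, had been dosed by pin tool the day after seeding with one drug alone or a fixed anchor-drug dose plus five library-drug doses (not always all listed) in √10 steps. Relative viability is the nuclei count in treated wells divided by that in vehicle wells, and each value is the median of duplicate plates.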

NCI-H2405 = system: NCI-H2405
Outline: as §1

NCI-H2009 = system: NCI-H2009
Outline: as §1

NCI-H647 = system: NCI-H647
Outline: as §1

LOU-NH91 = system: LOU-NH91
Outline: as §1

NCI-H1703 = system: NCI-H1703
Outline: as §1

IA-LM = system: IA-LM
Outline: as §1

EBC-1 = system: EBC-1
Outline: as §1

Calu-6 = system: Calu-6
Outline: as §1

A549 = system: A549
Outline: as §1

Structure (SMILES): CCNC(=O)c1noc(-c2cc(C(C)C)c(O)cc2O)c1-c1ccc(CN2CCOCC2)cc1 [Luminespib] + CC(C)C[C@H](NC(=O)[C@H](Cc1ccccc1)NC(=O)c1cnccn1)B(O)O [Bortezomib] (partner 0.002 µM)
- relative viability (NCI-H1299; first compound 0.002 µM): 1.01
- relative viability (NCI-H1299; first compound 0.006325 µM): 0.999
- relative viability (NCI-H1299; first compound 0.02 µM): 1.04
- relative viability (NCI-H1299; first compound 0.06325 µM): 0.946
- relative viability (NCI-H1299; first compound 0.2 µM): 0.248
- relative viability (NCI-H2405; first compound 0.002 µM): 0.987
- relative viability (NCI-H2405; first compound 0.006325 µM): 0.533
- relative viability (NCI-H2405; first compound 0.02 µM): 0.835
- relative viability (NCI-H2405; first compound 0.06325 µM): 0.9
- relative viability (NCI-H2405; first compound 0.2 µM): 0.358
- relative viability (NCI-H2009; first compound 0.002 µM): 1.16
- relative viability (NCI-H2009; first compound 0.006325 µM): 0.841
- relative viability (NCI-H2009; first compound 0.02 µM): 0.956
- relative viability (NCI-H2009; first compound 0.06325 µM): 0.0583
- relative viability (NCI-H2009; first compound 0.2 µM): 0.0609
- relative viability (NCI-H647; first compound 0.002 µM): 0.999
- relative viability (NCI-H647; first compound 0.006325 µM): 0.987
- relative viability (NCI-H647; first compound 0.02 µM): 0.29
- relative viability (NCI-H647; first compound 0.06325 µM): 0.0859
- relative viability (NCI-H647; first compound 0.2 µM): 0.0972
- relative viability (LOU-NH91; first compound 0.002 µM): 0.513
- relative viability (LOU-NH91; first compound 0.006325 µM): 0.484
- relative viability (LOU-NH91; first compound 0.02 µM): 0.518
- relative viability (LOU-NH91; first compound 0.06325 µM): 0.451
- relative viability (LOU-NH91; first compound 0.2 µM): 0.389
- relative viability (NCI-H1703; first compound 0.002 µM): 0.494
- relative viability (NCI-H1703; first compound 0.006325 µM): 0.415
- relative viability (NCI-H1703; first compound 0.02 µM): 0.224
- relative viability (NCI-H1703; first compound 0.06325 µM): 0.13
- relative viability (NCI-H1703; first compound 0.2 µM): 0.14
- relative viability (IA-LM; first compound 0.002 µM): 0.819
- relative viability (IA-LM; first compound 0.006325 µM): 0.951
- relative viability (IA-LM; first compound 0.02 µM): 0.648
- relative viability (IA-LM; first compound 0.06325 µM): 0.067
- relative viability (IA-LM; first compound 0.2 µM): 0.0656
- relative viability (EBC-1; first compound 0.002 µM): 0.583
- relative viability (EBC-1; first compound 0.006325 µM): 0.541
- relative viability (EBC-1; first compound 0.02 µM): 0.318
- relative viability (EBC-1; first compound 0.06325 µM): 0.118
- relative viability (EBC-1; first compound 0.2 µM): 0.169
- relative viability (Calu-6; first compound 0.002 µM): 1.06
- relative viability (Calu-6; first compound 0.006325 µM): 0.883
- relative viability (Calu-6; first compound 0.02 µM): 1.21
- relative viability (Calu-6; first compound 0.06325 µM): 0.141
- relative viability (Calu-6; first compound 0.2 µM): 0.159

Structure (SMILES): Cc1cn(-c2cc(NC(=O)c3ccc(C)c(Nc4nccc(-c5cccnc5)n4)c3)cc(C(F)(F)F)c2)cn1 [Nilotinib] + C[C@@H](Oc1cc(-c2cnn(C3CCNCC3)c2)cnc1N)c1c(Cl)ccc(F)c1Cl [Crizotinib] (partner 1 µM)
- relative viability (NCI-H1299; first compound 0.001 µM): 0.925
- relative viability (NCI-H1299; first compound 0.003162 µM): 1.01
- relative viability (NCI-H1299; first compound 0.01 µM): 1.07
- relative viability (NCI-H1299; first compound 0.03162 µM): 0.918
- relative viability (NCI-H1299; first compound 0.1 µM): 0.969
- relative viability (A549; first compound 0.001 µM): 0.916
- relative viability (A549; first compound 0.003162 µM): 0.976
- relative viability (A549; first compound 0.01 µM): 1.09
- relative viability (A549; first compound 0.03162 µM): 0.501
- relative viability (A549; first compound 0.1 µM): 0.547
- relative viability (NCI-H2405; first compound 0.001 µM): 0.854
- relative viability (NCI-H2405; first compound 0.003162 µM): 0.746
- relative viability (NCI-H2405; first compound 0.01 µM): 0.84
- relative viability (NCI-H2405; first compound 0.03162 µM): 0.747
- relative viability (NCI-H2405; first compound 0.1 µM): 0.857
- relative viability (NCI-H647; first compound 0.001 µM): 1.05
- relative viability (NCI-H647; first compound 0.003162 µM): 1.34
- relative viability (NCI-H647; first compound 0.03162 µM): 0.749
- relative viability (NCI-H647; first compound 0.1 µM): 0.716
- relative viability (LOU-NH91; first compound 0.001 µM): 0.763
- relative viability (LOU-NH91; first compound 0.003162 µM): 0.722
- relative viability (LOU-NH91; first compound 0.01 µM): 0.76
- relative viability (LOU-NH91; first compound 0.03162 µM): 0.722
- relative viability (LOU-NH91; first compound 0.1 µM): 0.768
- relative viability (NCI-H1703; first compound 0.003162 µM): 0.403
- relative viability (NCI-H1703; first compound 0.01 µM): 0.291
- relative viability (NCI-H1703; first compound 0.03162 µM): 0.191
- relative viability (NCI-H1703; first compound 0.1 µM): 0.175
- relative viability (IA-LM; first compound 0.003162 µM): 0.77
- relative viability (IA-LM; first compound 0.01 µM): 0.835
- relative viability (IA-LM; first compound 0.03162 µM): 0.637
- relative viability (IA-LM; first compound 0.1 µM): 0.659
- relative viability (EBC-1; first compound 0.001 µM): 0.216
- relative viability (EBC-1; first compound 0.003162 µM): 0.202
- relative viability (EBC-1; first compound 0.01 µM): 0.174
- relative viability (EBC-1; first compound 0.03162 µM): 0.157
- relative viability (EBC-1; first compound 0.1 µM): 0.164
- relative viability (Calu-6; first compound 0.001 µM): 0.677
- relative viability (Calu-6; first compound 0.003162 µM): 0.798
- relative viability (Calu-6; first compound 0.01 µM): 1.19
- relative viability (Calu-6; first compound 0.03162 µM): 0.548
- relative viability (Calu-6; first compound 0.1 µM): 0.637

Structure (SMILES): Nc1cccc2c1CN(C1CCC(=O)NC1=O)C2=O (stereo not drawn) [Lenalidomide] + CC(C)C[C@H](NC(=O)[C@H](Cc1ccccc1)NC(=O)c1cnccn1)B(O)O [Bortezomib] (partner 0.002 µM)
- relative viability (NCI-H1299; first compound 0.253 µM): 1.03
- relative viability (NCI-H1299; first compound 0.8 µM): 1.01
- relative viability (NCI-H1299; first compound 2.53 µM): 1.06
- relative viability (NCI-H1299; first compound 8 µM): 1.06
- relative viability (NCI-H2405; first compound 0.253 µM): 0.912
- relative viability (NCI-H2405; first compound 0.8 µM): 0.418
- relative viability (NCI-H2405; first compound 2.53 µM): 0.876
- relative viability (NCI-H2405; first compound 8 µM): 0.828
- relative viability (NCI-H2009; first compound 0.253 µM): 0.929
- relative viability (NCI-H2009; first compound 0.8 µM): 1.02
- relative viability (NCI-H2009; first compound 2.53 µM): 1.22
- relative viability (NCI-H2009; first compound 8 µM): 1.01
- relative viability (NCI-H647; first compound 0.253 µM): 0.88
- relative viability (NCI-H647; first compound 0.8 µM): 0.9
- relative viability (NCI-H647; first compound 2.53 µM): 1.16
- relative viability (NCI-H647; first compound 8 µM): 0.772
- relative viability (LOU-NH91; first compound 0.253 µM): 0.478
- relative viability (LOU-NH91; first compound 0.8 µM): 0.433
- relative viability (LOU-NH91; first compound 2.53 µM): 0.501
- relative viability (LOU-NH91; first compound 8 µM): 0.522
- relative viability (NCI-H1703; first compound 0.253 µM): 0.231
- relative viability (NCI-H1703; first compound 0.8 µM): 0.399
- relative viability (NCI-H1703; first compound 2.53 µM): 0.328
- relative viability (NCI-H1703; first compound 8 µM): 0.47
- relative viability (IA-LM; first compound 0.253 µM): 0.946
- relative viability (IA-LM; first compound 0.8 µM): 0.753
- relative viability (IA-LM; first compound 2.53 µM): 0.884
- relative viability (IA-LM; first compound 8 µM): 0.764
- relative viability (EBC-1; first compound 0.253 µM): 0.653
- relative viability (EBC-1; first compound 0.8 µM): 0.589
- relative viability (EBC-1; first compound 2.53 µM): 0.684
- relative viability (EBC-1; first compound 8 µM): 0.564
- relative viability (Calu-6; first compound 0.253 µM): 1.04
- relative viability (Calu-6; first compound 0.8 µM): 1.01
- relative viability (Calu-6; first compound 2.53 µM): 0.997
- relative viability (Calu-6; first compound 8 µM): 1.06
